According to patent US20250214977A1, “STAT6 INHIBITORS AND USES THEREOF” (Kymera Therapeutics, Inc., priority 2024, published 2025):

The compounds below were run on Phosphorylation of STAT6 in human A549 cells (assay: Phosphorylated STAT6 (pSTAT6) flow cytometry assay in human A549 cells). Conditions: read-out: STAT6 IL4 pSTAT6 assay in A549 cells: Average IC50.
Type: cell-based
Excerpt: Example 3. Phosphorylated STAT6 (pSTAT6) Flow Cytometry Assay in Human A549 Cells
Phosphorylation of STAT6 in human A549 cells was quantitatively measured using flow cytometry technology.

Compound | IC50 [nM]
COc1ccccc1-c1cc(C2=CCCN(C(=O)CCn3ccnn3)C2)c(F)c2[nH]c(C(=O)N3CCN(c4ccc(=O)n(C)c4)CC3)cc12 [Example I-971] | < 100
COc1ccncc1-c1cc(C2=CCCN(C(=O)CCn3ccnn3)C2)c(F)c2[nH]c(C(=O)N3CC=C(c4ncc(F)cc4OC)CC3)cc12 [Example I-442] | < 100
COc1c(-c2cc(C3=CCCN(C(=O)CCn4ccnn4)C3)c(F)c3[nH]c(C(=O)N4CCN(c5ncccc5OC5CC5)CC4)cc23)cnc2ccccc12 [Example I-447] | < 100
CCc1cnccc1-c1cc(C2=CCCN(C(=O)CCn3cccn3)C2)c(F)c2[nH]c(C(=O)N3CCN(c4ncc(F)cc4OC)CC3)cc12 [Example I-688] | < 100
Cc1cc(F)ccc1-c1cc(C2=CCCN(C(=O)CCn3ccnn3)C2)cc2cc(C(=O)N(C)C)oc12 [Example I-1083] | < 100
(R)-1-(3-(7-fluoro-2-(4-(5-fluoro-3-methoxypyridin-2-yl)piperazine-1-carbonyl)-4-(1-methylpyrrolidin-3-yl)-1H-indol-6-yl)-5,6-dihydropyridin-1(2H)-yl)-3-(1H-1,2,3-triazol-1-yl)propan-1-one [Example I-812] | < 100
COc1ccccc1-c1cc(C2=CCCN(C(=O)CCn3ccnn3)C2)c(F)c2[nH]c(C(=O)N3CCN(c4scnc4C)CC3)cc12 [Example I-777] | < 100
COc1cccc(/C=C/c2cc(C3=CCCN(C(=O)CCn4ccnn4)C3)c(F)c3[nH]c(C(=O)N4CCN(c5ncc(F)cc5OC)CC4)cc23)c1 [Example I-1129] | < 100
COc1ccccc1-c1cc(C2CN(C(=O)CCn3ccnn3)CC(F)(F)C2)c(F)c2[nH]c(C(=O)N3Cc4cnn(C)c4C3)cc12 (stereo not shown) [Example I-512] | < 100
CCc1nc(C)ccc1-c1cc(C(=O)N2Cc3cnn(CC)c3C2)c(F)c2cc(C3=CCCN(C(=O)CCn4ccnn4)C3)n(CC3CC3)c12 [Example I-549] | > 100000

Second part, the compound after the results:

IC50 [nM] | Compound
< 100 | COc1ccccc1-c1cc(C2=CCCN(C(=O)CCn3ccnn3)C2)c(F)c2[nH]c(C(=O)N3CCN(c4c(C)ccc5[nH]ncc45)CC3)cc12 [Example I-959]
< 100 | COc1ccccc1-c1cc(C2=CCCN(C(=O)CCn3ccnn3)C2)c(F)c2[nH]c(C(=O)N3CCN(CC4(C)COC4)CC3)cc12 [Example I-1183]
100 to 1000 | CCc1ccncc1-c1cc(C2=CCCN(C(C)=O)C2)c(F)c2[nH]c(C(=O)N3CCN(c4ncccc4OC)CC3)cc12 [Example I-619]
< 100 | COc1cnc(N2CCN(C(=O)c3cc4c(-c5cnccc5OC)cc(C5=CCCN(C(=O)CCn6ccnn6)C5)c(F)c4[nH]3)CC2)c(OC)c1 [Example I-437]
< 100 | CCc1cc(C)ncc1-c1cc(C2=CCCN(C(=O)CCn3ccnn3)C2)c(F)c2[nH]c(C(=O)N3CCN(c4ccc(F)cc4OC)CC3)cc12 [Example I-739]
100 to 1000 | CN(C)C(=O)c1cc2cc(C3=CCCN(C(=O)CCn4ccnn4)C3)cc(NC3CCCC3)c2o1 [Example I-874]
< 100 | COc1ccccc1-c1cc(C2=CCCN(C(=O)CCn3ccnn3)C2)c(F)c2[nH]c(C(=O)N3CCN(c4ncccn4)C[C@@H]3C)cc12 [Example I-995]
< 100 | CN(C)C(=O)c1cc2cc(C3=CCCN(C(=O)CCn4ccnn4)C3)cc(-c3cc(F)ccc3C(F)(F)F)c2o1 [Example I-1081]
< 100 | CCOc1ccc(-c2cc(C3=CCCN(C(=O)CCn4ccnn4)C3)c(F)c3[nH]c(C(=O)N4CCN(c5ncc(F)cc5OC)CC4)cc23)c(OC)c1 [Example I-661]
1000 to 10000 | COCc1cccc(NC(=O)c2cc3c(-c4ccccc4OC)cc(C4=CCCN(C(=O)CCn5ccnn5)C4)c(F)c3[nH]2)c1 [Example I-1028]
< 100 | COc1ncccc1-c1cc(C2=CCCN(C(=O)CCn3ccnn3)C2)cc2cc(C(=O)N(C)C)oc12 [Example I-1082]
100 to 1000 | CN(C)C(=O)c1cc2cc(C3=CCCN(C(=O)CCn4ccnn4)C3)cc(NC[C@@H]3CCC(=O)N3C)c2o1 [Example I-896]
